Measured values published in article PMC10053440, “Semi-Synthesis and Biological Evaluation of 25(R)-26-Acetoxy-3β,5α-Dihydroxycholest-6-One” (Marine Drugs, 2023).
≈ marks a conversion by molar mass, not a printed value.

Assays:
[1] = system: respiratory syncytial virus (RSV); assay: Anti-RSV activity assay (RT-qPCR); format: cell-based; conditions: human respiratory syncytial virus, HEp-2 cells, mean ± SEM, read-out: Inhibition rate (%) of RSV replication
Text: Remdesivir was selected and evaluated as a positive control.

[2] = system: K-562 (human myeloid leukemia cell); assay: CCK-8 anti-proliferation assay, K-562; format: cell-based; conditions: 48 h, mean ± SEM
Protocol: (§1) One concentration was set for each sample during preliminary screening and three multiple holes were set for each concentration. Eight concentration gradients were set for each sample for IC50 determination and three multiple holes were set for each concentration. […] The absorbance was measured at 450 nm with an enzyme labeling instrument and the original data and results were recorded. […] Doxorubicin was used as a positive control. All the cancer cell lines were obtained from Qingdao AC biotechnology Co., LTD, Qingdao, China.

[3] = system: A549 (human lung adenocarcinoma cell); assay: CCK-8 anti-proliferation assay, A549; format: cell-based; conditions: A549, 48 h, at 20 µM, mean ± SEM, read-out: Inhibition Rate (%)
Protocol: as §1

[4] = system: MKN-45 (human gastric cancer cell); assay: CCK-8 anti-proliferation assay, MKN-45; format: cell-based; conditions: at 20 µM, 48 h, mean ± SEM, read-out: Inhibition Rate (%)
Protocol: as §1

[5] = system: HCT 116 (human colorectal cancer cell); assay: CCK-8 anti-proliferation assay, HCT 116; format: cell-based; conditions: at 20 µM, 48 h, mean ± SEM, read-out: Inhibition Rate (%)
Protocol: as §1

[6] = system: HeLa (human cervical cancer cell); assay: CCK-8 anti-proliferation assay, HeLa; format: cell-based; conditions: at 20 µM, 48 h, mean ± SEM, read-out: Inhibition Rate (%)
Protocol: as §1

[7] = system: 786-O (human renal cancer cell); assay: CCK-8 anti-proliferation assay, 786-O; format: cell-based; conditions: 786-0, at 20 µM, 48 h, mean ± SEM, read-out: Inhibition Rate (%)
Protocol: as §1

[8] = system: TE-1 (human esophageal cancer cell); assay: CCK-8 anti-proliferation assay, TE-1; format: cell-based; conditions: at 20 µM, 48 h, mean ± SEM, read-out: Inhibition Rate (%)
Protocol: as §1

[9] = system: 5637 (HTB-9) (human bladder cancer cell); assay: CCK-8 anti-proliferation assay, 5637 (HTB-9); format: cell-based
Protocol: as §1

[10] = system: GBC-SD (human gallbladder carcinoma cell); assay: CCK-8 anti-proliferation assay, GBC-SD; format: cell-based; conditions: at 20 µM, 48 h, mean ± SEM, read-out: Inhibition Rate (%)
Protocol: as §1

[11] = system: L-02 (human hepatocyte cell); assay: CCK-8 anti-proliferation assay, L-02; format: cell-based; conditions: L-02 normal liver cells, at 20 µM, 48 h, mean ± SEM, read-out: Inhibition Rate (%)
Protocol: as §1

[12] = system: MCF7 (human breast cancer cell); assay: CCK-8 anti-proliferation assay, MCF7; format: cell-based; conditions: at 20 µM, 48 h, mean ± SEM, read-out: Inhibition Rate (%)
Protocol: as §1

[13] = system: HepG2 (human liver carcinoma cell); assay: CCK-8 anti-proliferation assay, HepG2; format: cell-based
Protocol: as §1

[14] = system: SF126 (human glioblastoma cell); assay: CCK-8 anti-proliferation assay, SF126; format: cell-based; conditions: SF-126, at 20 µM, 48 h, mean ± SEM, read-out: Inhibition Rate (%)
Protocol: as §1

[15] = system: DU145 (human prostate carcinoma cell); assay: CCK-8 anti-proliferation assay, DU145; format: cell-based; conditions: DU-145, at 20 µM, 48 h, mean ± SEM, read-out: Inhibition Rate (%)
Protocol: as §1

[16] = system: CAL-62 (human thyroid anaplastic carcinoma cell); assay: CCK-8 anti-proliferation assay, CAL-62; format: cell-based; conditions: at 20 µM, 48 h, mean ± SEM, read-out: Inhibition Rate (%)
Protocol: as §1

[17] = system: PATU8988T (human pancreatic cancer cell); assay: CCK-8 anti-proliferation assay, PATU8988T; format: cell-based; conditions: PaTu 8988t, at 20 µM, 48 h, mean ± SEM, read-out: Inhibition Rate (%)
Protocol: as §1

[18] = system: HOS (human osteosarcoma cell); assay: CCK-8 anti-proliferation assay, HOS; format: cell-based; conditions: at 20 µM, 48 h, mean ± SEM, read-out: Inhibition Rate (%)
Protocol: as §1

[19] = system: A-375 (human melanoma cell); assay: CCK-8 anti-proliferation assay, A-375; format: cell-based; conditions: at 20 µM, 48 h, mean ± SEM, read-out: Inhibition Rate (%)
Protocol: as §1

[20] = system: A-673 (Ewing sarcoma); assay: CCK-8 anti-proliferation assay, A-673; format: cell-based; conditions: Homo sapiens, A673, at 20 µM, 48 h, mean ± SEM, read-out: Inhibition Rate (%)
Protocol: as §1

[21] = system: 293T (human embryonic kidney cell); assay: CCK-8 anti-proliferation assay, 293T; format: cell-based; conditions: HEK-293T, at 20 µM, 48 h, mean ± SEM, read-out: Inhibition Rate (%)
Protocol: as §1

[22] = system: 5637 (HTB-9) cells; assay: Apoptosis assay, Annexin V-FITC/PI flow cytometry; format: cell-based, human; conditions: 48 h
Protocol: Next, the apoptosis study of compound ([…])-5 was investigated against 5637 (HTB-9) cells based on a standard flow cytometry technique and assessed by Annexin V-FITC/PI staining. […] The percent of apoptosis in cells was assayed according to the instructions (Vazyme, A211). 5637 (HTB-9) cells were seeded in 6-well plates at 2 × 10^5 cells/well overnight and treated with compound ([…])-5 at various concentrations for 48 h. Trypsinization of the cells occurred without EDTA and they were collected in tubes and suspended in 100 μL ice-cold 1 × binding buffer after being washed twice with PBS. Cells were stained with PI and FITC Annexin V for 10 min at room temperature following the instructions of the Annexin V FITC/PI kit (Vazyme Biotech, Nanjing, China). Next, 200 μL ice-cold 1 × binding buffer was added. The result was measured by flow cytometry (MoFlo XDP, Beckman, Pasadena, CA, USA). For each condition, a minimum of 10,000 cells were analyzed. Triplicate experiments were performed independently.

[23] = system: human leukemia cell line K-562; conditions: cited from earlier work

CC(=O)OC[C@H](C)CCC[C@@H](C)[C@H]1CC[C@H]2[C@@H]3CC(=O)[C@@]4(O)C[C@@H](O)CC[C@]4(C)[C@H]3CC[C@]12C [compound (25R)-5, (2R,6R)-6-((3S,5R,8S,9S,10R,13R,14S,17R)-3,5-Dihydroxy-10,13-Dimethyl-6-Oxohexadecahydro-1H-Cyclopenta[a]Phenanthren-17-yl)-2-Methylheptyl Acetate]
inhibition at 10 µM [1]: 29.4 ± 7.1%
inhibition at 20 µM ([2]; Homo sapiens, K562, at 20 µM, read-out: Inhibition Rate (%)): 17.1 ± 2.8%
Inhibition Rate (%) ([2]; at 20 µM): weak inhibition activity
inhibition at 20 µM [3]: ≤ 50%
inhibition at 20 µM [4]: 61.1 ± 1.4%
inhibition at 20 µM [5]: 59.3 ± 3.8%
inhibition at 20 µM [6]: 22.7 ± 1.2%
inhibition at 20 µM [7]: 65.3 ± 0.5%
inhibition at 20 µM [8]: 29.5 ± 2.2%
inhibition at 20 µM ([9]; 5637 (HTB-9), at 20 µM, 48 h, mean ± SEM, read-out: Inhibition Rate (%)): 64.7 ± 3.4%
IC50 ([9]; CCK-8, 48 h, read-out: IC50 against 5637 (HTB-9) cells): 4.8 µM
inhibition at 20 µM [10]: 28.1 ± 1.5%
inhibition at 20 µM [11]: -4.9 ± 3.4%
inhibition at 20 µM [12]: 19.3 ± 2.1%
IC50 ([13]; CCK-8, 48 h, read-out: IC50 against HepG2 cells): 15.5 µM
inhibition at 20 µM ([13]; at 20 µM, 48 h, mean ± SEM, read-out: Inhibition Rate (%)): 66.8 ± 2.1%
inhibition at 20 µM [14]: 28.1 ± 0.5%
inhibition at 20 µM [15]: 12.2 ± 2%
inhibition at 20 µM [16]: 18.2 ± 1.9%
inhibition at 20 µM [17]: 65.9 ± 4.2%
inhibition at 20 µM [18]: 22.2 ± 1.1%
inhibition at 20 µM [19]: 76.3 ± 1.7%
inhibition at 20 µM [20]: 49.4 ± 1.4%
inhibition at 20 µM [21]: 26.2 ± 1.5%
induction of apoptosis (early-stage Annexin V-FITC+/PI- and late-stage Annexin V-FITC+/PI+) [22]: induced apoptotic cell death in a dose-dependent manner

CC(=O)OCC(C)CCC[C@@H](C)[C@H]1CC[C@H]2[C@@H]3CC(=O)[C@@]4(O)C[C@@H](O)CC[C@]4(C)[C@H]3CC[C@]12C (stereo partly drawn) [compound 5]
inhibition at 10 µM [1]: 18.3 ± 3.8%
LC50 [23]: 0.9 µg/mL (≈ 1.89 µM)
